According to patent publication US8039668B2, “Naphthalene-based inhibitors of anti-apoptotic proteins” (Burnham Institute for Medical Research, priority 2008, dated 2011):
Like-named read-outs stand apart in the source and are kept apart here. One block for each molecule: values may come before it.

Key:
[1] = tested on: HeLa cells; assay: HeLa cells viability assay; type: cell-based; conditions: Homo sapiens, Table 12
Method: Relative numbers of viable cells was determined by XTT assay. Briefly, in a 96-well plate, we added 50 μl of a mixture of 1 mg/ml of XTT (2,3-bis(2-methoxy-4-nitro-5-sulfophenyl)-5-[(phenylamino)carbonyl]-2H-tetrazolium hydroxide) (Polysciences, Washington, Pa.) containing 0.025 mM PMS (phenazine methosulfate) to each well. The 96-well plates were reincubated for an additional 4 hours to allow for XTT formazan production. Then, the contents of each plate were mixed and optical densities were determined at a wavelength of 450 nm (OD450). Net OD450 was determined after subtracting OD450 of blank wells. […] Immunoblot analysis of BCL-XL was accomplished as previously described.

[2] = tested on: H460 cell line; conditions: studied by other groups; cited from earlier work
[3] = tested on: B6Bcl-2 transgenic mice
Method in brief: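 B6 line BCL-2 transgenic mice (human BCL-2 fused to IgH locus/enhancer, Balb/c background) sacrificed 24 h post-treatment by lethal i.p. Avertin. Spleen removed and weighed, fixed 3 days in z-FIX for H&E and TUNEL histology.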

[4] = tested on: Balb/c mice; assay: Oral toxicity of gossypol vs apogossypol in normal mice; type: in vivo, mouse; conditions: daily dosing studies in mice
Method: Compounds or vehicle control were dosed 15 times over 3 weeks, giving compounds daily for 5 consecutive days (Monday-Friday), resting on weekends.
Spleens were removed and weighed.
Whole blood (250 μl) was collected in EDTA-coated glass tubes (purple top; MICROTAINER Brand Tube with EDTA, Catalogue #365973, Becton, Dickinson and Company, New Jersey 07417-1885) via either cardiac puncture or severing the brachial artery of anesthetized mice. After thorough mixing, specimens were analyzed using a VetScan HM2 (Abaxis Inc., Union City, Calif. 94587) hematology analyzer, measuring white blood cell count (WBC), red blood cell count (RBC), platelet (PLT) count, leukocyte differential (including % lymphocyte, % monocyte and % granulocyte), hematocrit (Ht), and hemoglobin (Hb).
(Eppendorf Centrifuge 5415C) for 2 minutes to separate serum from cells and fibrin clot. The resulting serum specimens were analyzed using an automated blood chemistry analyzer (“COBAS MIRA Classic”; Roche, Indianapolis, Ind. 46250-0414) to measure alanine aminotransferase (ALT) and aspartate aminotransferase AST), blood urea nitrogen (BUN), and […].

[5] = Chemical stability of solid compounds at room temperature (HPLC, LCMS); conditions: in air, Apogossypol in the absence of ascorbic acid
Source text: The stability of compound was monitored using a combination of HPLC and LCMS.

[6] = biological target: T1, Bfl-1 (Homo sapiens, UniProt Q16548); assay: Competitive fluorescence polarization assay (FPA); type: binding
T1 sequence (Q16548 1-175): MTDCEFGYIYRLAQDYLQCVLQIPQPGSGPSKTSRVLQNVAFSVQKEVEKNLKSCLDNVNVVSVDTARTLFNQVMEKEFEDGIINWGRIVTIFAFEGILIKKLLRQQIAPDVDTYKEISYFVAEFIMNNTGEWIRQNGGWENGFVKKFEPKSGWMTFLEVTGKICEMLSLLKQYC

[7] = PAMPA cell membrane permeability; type: in vitro ADME; conditions: Table 11; Low/Medium, not defined
Source text: PAMPA is parallel artificial membrane permeation assay.

[8] = Plasma stability; type: in vitro ADME, rat
Method: Plasma Stability. A 20 μL aliquot of a 10 mM solution in DMSO of the test compound was added to 2.0 mL of heparinized rat plasma (Lampire, P1-150N) to obtain a 100 μM final solution. The mixture was incubated for 1 h at 37.5° C. Aliquots of 100 μL were taken (0, 30 min, 1 h) and diluted with 200 μL of MeOH containing internal standard.

[9] = tested on: BP3 human B-cell lymphoma cell line; assay: Annexin V-FITC and propidium iodide assay; type: cell-based; conditions: Annexin V-FITC and propidium iodide assay, read-out: EC50 BP3
[10] = Liver microsomal stability; type: in vitro ADME, rat; conditions: Table 6; rat liver microsomes, 1 h
Source text: Liver Microsomal Stability.

[11] = tested on: PC3ML cells; assay: Cell viability, ATP-LITE assay; type: cell-based, human; conditions: Table 3; ATP-LITE assay; heading: EC50 PC3ML; read-out: EC50 PC3ML
Method in brief: (§1)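 Human cancer lines were seeded at 2000 (H460, H1299), 3000 (PC3) or 10,000 (RS11846) cells/well in F12 or RPMI1640 with 5% FBS. Compounds were added in 0.1% DMSO 24 h after seeding. Viability was read by ATP-LITE luminescence after 72 h and normalized to DMSO controls.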

[12] = biological target: Bcl-2 (Homo sapiens, UniProt P10415); assay: Competitive fluorescence polarization assay (FPA), Bim BH3 peptide; type: binding
Chain of Bcl-2 (P10415 whole entry): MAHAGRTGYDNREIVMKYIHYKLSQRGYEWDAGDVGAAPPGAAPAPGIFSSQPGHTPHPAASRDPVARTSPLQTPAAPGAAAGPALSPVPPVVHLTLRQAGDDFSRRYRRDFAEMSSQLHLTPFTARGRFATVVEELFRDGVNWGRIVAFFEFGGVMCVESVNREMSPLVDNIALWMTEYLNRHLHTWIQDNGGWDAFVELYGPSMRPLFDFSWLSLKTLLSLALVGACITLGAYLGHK

[13] = tested on: BCL-2 transgenic mice; assay: Oral efficacy study in BCL-2 transgenic mice, QDx5 for 3 weeks; conditions: low dose 0.06 mmol/kg oral
Method: The volume of administration was 10 ml/kg, i.e., typically 0.2 mL per 20 gm mouse. […] Age-matched, sex-matched mice were typically dosed 5 times weekly, using a regiment of daily dosing 5 consecutive days (Monday through Friday), followed by resting for 2 days, before resuming dosing. […] At conclusion of treatments, mice were sacrificed via intra-peritoneal (i.p.) injection of 0.7 ml of Avertin and whole blood was collected into Yellow-Top Serum Separator tubes (Becton Dickinson Vacutainer Systems Becton Dickinson and Company, Franklin Lakes, N.J. 07417-1885). Spleens were removed and weighed.
Age-matched and sex-matched BCL-2 transgenic mice were used for efficacy studies. BCL-2 transgenic mice spontaneously developed low grade B-cell lymphoma as characterized by splenomegaly, as a function of time. In BCL-2 transgenic mice, the disease progression can be divided into two stages; at the first stage, the disease is characterized by splenomegaly as a result of expansion of B-cells in spleen due to over-expressed BCL-2 in B6 mice, and at the second stage, another genetic hit(s) may strike, resulting in disseminated lymphoma as characterized by bulky lymphadenopathy as well as splenomegaly.
In this study, BCL-2 transgenic mice at the first stage were used for this efficacy study. […] At conclusion of treatment, BCL-2 transgenic mice were sacrificed via intraperitoneal injection of 0.7 ml of avertin (anesthetic solution) and spleen was removed and weighed. Splenocytes were isolated by the use of mouse erythrocyte lysing kit (RD Systems). Total splenocyte count was determined by trypane blue exclusion assays. % B-cell count was determined by FACS analysis after staining cells with CD-5, a B-cell marker.

[14] = tested on: human lymphoma RS11846 cell line; assay: Apoptosis, Annexin V-FITC and propidium iodide assay; type: cell-based; conditions: Table 3; Annexin V-FITC and propidium iodide assay; heading: EC50 RS11846; read-out: EC50 RS11846
[15] = tested on: H460 human lung cell line; assay: Cell viability, ATP-LITE assay; type: cell-based; conditions: ATP-LITE assay, read-out: EC50 H460
Method in brief: as §1

IC50 [1]: 6.5 µM
SMILES: O=c1c(O)cccc2cc(O)c(O)c(O)c12 [Purpurogallin]

SMILES: COC1=CC(c2cc3ccccc3[nH]2)=N/C1=C\c1[nH]c(C)cc1C [GX15-070]
IC50 [2]: 3.85 µM

SMILES: Cc1cc2c(C(C)C)c(O)c(O)cc2c(O)c1-c1c(C)cc2c(C(C)C)c(O)c(O)cc2c1O [Apogossypol, 5,5′-diisopropyl-3,3′-dimethyl-2,2′-binaphthyl-1,1′,6,6′,7,7′-hexanol, reference compound]
Tox ([3]; Bcl-2 transgenic mouse, single ip injection 72 μmol/kg): 0
percentage of maximum reduction in spleen weight (maximal biological activity) ([3]; single ip 72 μmol/kg, maximum shrinkage no more than 50%): 40%
tolerated doses, times higher than gossypol [4]: 2-4
degraded after 60 days at room temperature [5]: ~80%
IC50 [6]: > 10 µM
Cell Permeability [7]: Low
degraded after 1 hour incubation in rat plasma ([8]; 1 hour): 47%
Plasma stability (T = 1 h) ([8]; Table 6, rat plasma, 1 h): 53%
EC50 [9]: 4.7 µM
EC50 ([9]; Table 3, heading: EC50 BP3): 4.7 µM
Microsomal Stability (T = 1 h) [10]: 64%
EC50 [11]: 10.4 µM
IC50 [12]: 4.3 µM
shrinkage of spleen [13]: induced shrinkage of spleen to a significant extent
tolerability [13]: well tolerated
EC50 [14]: 5 µM
EC50 [15]: 3.5 µM
EC50 ([15]; Table 3, heading: EC50 H460): 3.5 µM
